Measurements: patent publication US20110044938A1 (NYCOMED GMBH, priority 2006, published 2011)

Legend:
[1] = system: RKO (RKOp27) human colon adenocarcinoma cells; assay: Alamar Blue cell viability assay, anti-proliferative/cytotoxic activity on proliferating RKO subclones; format: cell-based; settings: RKOp27, 72 h, RKO p27 uninduced (proliferating) cells, value = class bound given in Table A, read-out: −logIC50 RKO p27 uninduced (proliferating) (converted)
In short: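 Alamar Blue fluorescence (ex 544, em 590 nm) after 72 h compound exposure at 37 °C, 5% CO2, normalised to untreated controls set at 100%. Cells were seeded at 5000 per well and dosed 24 h later with serial semi-logarithmic dilutions in 10% FCS DMEM, four replicates each. −log IC50 [mol/l] was derived from concentration-effect curves.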

[2] = system: subclones of RKO colon adenocarcinoma cells (RKOp27 or RKOp21) arrested by Ponasterone A; assay: Alamar Blue cell viability assay, cell cycle specific mode of action: cells arrested by ectopic p27Kip1 induced by Ponasterone A versus proliferating cells; format: cell-based; settings: Homo sapiens, RKO p27 induced (arrested) cells, 10 μM Ponasterone A, 72 hours, value = class bound given in Table A, read-out: −logIC50 RKO p27 induced (arrested) (converted)
In short: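 Viability of proliferating versus Ponasterone A (10 μM)-arrested RKOp27/RKOp21 cells after 72 h compound exposure at 37° C, in quadruplicate. Read-out is Alamar Blue fluorescence (544/590 nm) normalised to untreated cells = 100%; values as −log IC50.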

IC50 [2] [µM] | SMILES | IC50 [1] [µM]
≥ 100 | CC(CC(=O)Nc1sc2c(c1C#N)CCC(COC(=O)NC(C)c1ccccc1)C2)c1cccnc1 (stereo not shown) [Example 283, (1-Phenyl-ethyl)-carbamic acid 3-cyano-2-(3-pyridin-3-yl-butanoylamino)-4,5,6,7-tetrahydro-benzo[b]thiophen-6-ylmethyl ester] | 0.501 to 2
≥ 10 | CC(CC(=O)Nc1sc2c(c1C#N)CCC(OC(=O)NCCc1cccnc1)C2)c1ccccc1 (stereo not shown) [Example 290, (2-Pyridin-3-yl-ethyl)-carbamic acid 3-cyano-2-(3-phenyl-butanoyl-amino)-4,5,6,7-tetrahydro-benzo[b]thiophen-6-yl ester] | ≤ 0.501
≥ 100 | CCNC(=O)OCC1CCc2c(sc(NC(=O)CCc3cccnc3)c2C#N)C1 (stereo not shown) [Example 156, Ethyl-carbamic acid 3-cyano-2-(3-pyridin-3-yl-propanoylamino)-4,5,6,7-tetrahydro-benzo[b]thiophen-6-ylmethyl ester] | 0.501 to 2
≥ 100 | CCNC(=O)OC[C@H]1CCc2c(sc(NC(=O)/C=C/c3cccnc3)c2C#N)C1 [Example 9a, (S)-Ethyl-carbamic acid 3-cyano-2-((E)-3-pyridin-3-yl-allanoylamino)-4,5,6,7-tetrahydro-benzo[b]thiophen-6-ylmethyl ester] | ≤ 0.501
≥ 10 | CC(CC(=O)Nc1sc2c(c1C#N)CCC(COC(=O)NC(C)c1cccnc1)C2)c1ccccc1 (stereo not shown) [Example 316, (1-Pyridin-3-yl-ethyl)-carbamic acid 3-cyano-2-(3-phenyl-butanoylamino)-4,5,6,7-tetrahydro-benzo[b] thiophen-6-ylmethyl ester] | ≤ 0.501
≥ 10 | Cc1nc(CNC(=O)OCC2CCc3c(sc(NC(=O)CC(C)c4cccnc4)c3C#N)C2)cs1 (stereo not shown) [Example 377, (2-Methyl-thiazol-4-ylmethyl)-carbamic acid 3-cyano-2-(3-pyridin-3-yl-butanoylamino)-4,5,6,7-tetrahydro-benzo[b]thiophen-6-ylmethyl ester] | 0.501 to 2
≥ 50.1 | COc1cccc(C(C)CC(=O)Nc2sc3c(c2C#N)CCC(COC(=O)NCc2cccn2C)C3)c1 (stereo not shown) [Example 338, (1-Methyl-1H-pyrrol-2-ylmethyl)-carbamic acid 3-cyano-2-[3-(3-methoxy-phenyl)-butanoylamino]-4,5,6,7-tetrahydro-benzo[b]thiophen-6-ylmethyl ester] | 0.501 to 2
≥ 50.1 | COc1cccc(C(C)CC(=O)Nc2sc3c(c2C#N)CCC(COC(=O)NCc2ccnn2C)C3)c1 (stereo not shown) [Example 332, (2-Methyl-2H-pyrazol-3-ylmethyl)-carbamic acid 3-cyano-2-[3-(3-methoxy-phenyl)-butanoylamino]-4,5,6,7-tetrahydro-benzo[b] thiophen-6-ylmethyl ester] | 0.501 to 2

Second part, the compound before the results:

SMILES | IC50 [2] [µM] | IC50 [1] [µM]
Cc1ccncc1/C=C/C(=O)Nc1sc2c(c1C#N)CCC(COC(=O)N1CCCC1)C2 (stereo not shown) [Example 130, Pyrrolidine-1-carboxylic acid 3-cyano-2-[(E)-3-(4-methyl-pyridin-3-yl)-allanoylamino]-4,5,6,7-tetrahydro-benzo[b]thiophen-6-ylmethyl ester] | ≥ 100 | ≤ 0.501
N#Cc1c(NC(=O)/C=C/c2cccnc2)sc2c1CCC(COC(=O)N[C@H]1CC[C@H](O)CC1)C2 (stereo partly drawn) [Example 100, trans-4-Hydroxycyclohexyl-carbamic acid 3-cyano-2-((E)-3-pyridin-3-yl-allanoylamino)-4,5,6,7-tetrahydro-benzo[b]thiophen-6-ylmethyl ester] | ≥ 100 | 0.501 to 2
CCOc1ccccc1CCC(=O)Nc1sc2c(c1C#N)CCC(COC(=O)OCc1cncs1)C2 (stereo not shown) [Example 215, Carbonic acid 3-cyano-2-[3-(2-ethoxy-phenyl)-propanoylamino]-4,5,6,7-tetrahydro-benzo[b]thiophen-6-ylmethyl ester thiazol-5-ylmethyl ester] | ≥ 100 | ≤ 0.501
CCOc1ccccc1CCC(=O)Nc1sc2c(c1C#N)CCC(COC(=O)OCc1nccs1)C2 (stereo not shown) [Example 203, Carbonic acid 3-cyano-2-[3-(2-ethoxy-phenyl)-propanoylamino]-4,5,6,7-tetrahydro-benzo[b]thiophen-6-ylmethyl ester thiazol-2-ylmethyl ester] | ≥ 100 | ≤ 0.501
CC(CC(=O)Nc1sc2c(c1C#N)CCC(OC(=O)OCc1nccs1)C2)c1ccccc1 (stereo not shown) [Example 368, Carbonic acid 3-cyano-2-(3-phenyl-butanoylamino)-4,5,6,7-tetrahydro-benzo[b]thiophen-6-yl ester thiazol-2-ylmethyl ester] | ≥ 50.1 | 0.501 to 2
N#Cc1c(NC(=O)/C=C/c2cccnc2)sc2c1CCC(COC(=O)N1CCC[C@H]1CO)C2 (stereo partly drawn) [Example 104, 2-(S)-(Hydroxymethyl) pyrrolidine-1-carboxylic acid 3-cyano-2-((E)-3-pyridin-3-yl-allanoylamino)-4,5,6,7-tetrahydro-benzo[b]thiophen-6-ylmethyl ester] | ≥ 100 | ≤ 0.501
COc1cccc(C(C)CC(=O)Nc2sc3c(c2C#N)CCC(OC(=O)NCc2cc(C)nn2C)C3)c1 (stereo not shown) [Example 273, (2,5-Dimethyl-2H-pyrazol-3-ylmethyl)-carbamic acid 3-cyano-2-[3-(3-methoxy-phenyl)-butanoylamino]-4,5,6,7-tetrahydro-benzo[b] thiophen-6-yl ester] | ≥ 100 | ≤ 0.501
COc1cccc(C(C)CC(=O)Nc2sc3c(c2C#N)CCC(OC(=O)NCc2ccnn2C)C3)c1 (stereo not shown) [Example 277, (2-Methyl-2H-pyrazol-3-ylmethyl)-carbamic acid 3-cyano-2-[3-(3-methoxy-phenyl)-butanoylamino]-4,5,6,7-tetrahydro-benzo[b] thiophen-6-yl ester] | ≥ 100 | ≤ 0.501
CCOc1ccccc1CCC(=O)Nc1sc2c(c1C#N)CCC(COC(=O)NCc1ccccn1)C2 (stereo not shown) [Example 184, Pyridin-2-ylmethyl-carbamic acid 3-cyano-2-[3-(2-ethoxy-phenyl)-propanoylamino]-4,5,6,7-tetrahydro-benzo[b]thiophen-6-ylmethyl ester] | ≥ 100 | ≤ 0.501
N#Cc1c(NC(=O)/C=C/c2cccnc2)sc2c1CCC(COC(=O)N1CCCCO1)C2 (stereo not shown) [Example 117, [1,2]Oxazinane-2-carboxylic acid 3-cyano-2-((E)-3-pyridin-3-yl-allanoylamino)-4,5,6,7-tetrahydro-benzo[b]thiophen-6-ylmethyl ester] | ≥ 100 | ≤ 0.501
COc1cccc(CCC(=O)Nc2sc3c(c2C#N)CCC(OC(=O)NCc2cccnc2)C3)c1 (stereo not shown) [Example 259, Pyridin-3-ylmethyl-carbamic acid 3-cyano-2-[3-(3-methoxy-phenyl)-propanoylamino]-4,5,6,7-tetrahydro-benzo[b]thiophen-6-yl ester] | ≥ 100 | ≤ 0.501
CCOc1ccccc1CCC(=O)Nc1sc2c(c1C#N)CCC(OC(=O)NCc1cccnc1)C2 (stereo not shown) [Example 165, Pyridin-3-ylmethyl-carbamic acid 3-cyano-2-[3-(2-ethoxy-phenyl)-propanoylamino]-4,5,6,7-tetrahydro-benzo[b]thiophen-6-yl ester] | ≥ 100 | ≤ 0.501
Cn1nccc1CNC(=O)OC1CCc2c(sc(NC(=O)/C=C/c3cccnc3)c2C#N)C1 (stereo not shown) [Example 40, (2-Methyl-2H-pyrazol-3-ylmethyl)-carbamic acid 3-cyano-2-((E)-3-pyridin-3-yl-allanoylamino)-4,5,6,7-tetrahydro-benzo[b]thiophen-6-yl ester] | ≥ 100 | ≤ 0.501
N#Cc1c(NC(=O)/C=C/c2cccnc2)sc2c1CCC(OC(=O)N1CCCC(O)C1)C2 (stereo not shown) [Example 113, 3-Hydroxy-piperidine-1-carboxylic acid 3-cyano-2-((E)-3-pyridin-3-yl-allanoylamino)-4,5,6,7-tetrahydro-benzo[b]thiophen-6-yl ester] | ≥ 100 | ≤ 0.501
N#Cc1c(NC(=O)/C=C/c2cccnc2)sc2c1CCC(COC(=O)N1CC[C@@H](O)C1)C2 (stereo partly drawn) [Example 145, (R)-3-Hydroxy-pyrrolidine-1-carboxylic acid 3-cyano-2-((E)-3-pyridin-3-yl-allanoylamino)-4,5,6,7-tetrahydro-benzo[b]thiophen-6-ylmethyl ester] | ≥ 100 | ≤ 0.501
N#Cc1c(NC(=O)/C=C/c2cccnc2)sc2c1CCC(OC(=O)NCCc1cccnc1)C2 (stereo not shown) [Example 36, (2-Pyridin-3-yl-ethyl)-carbamic acid 3-cyano-2-((E)-3-pyridin-3-yl-allanoylamino)-4,5,6,7-tetrahydro-benzo[b]thiophen-6-yl ester] | ≥ 50.1 | 0.501 to 2
CCOc1ccccc1CCC(=O)Nc1sc2c(c1C#N)CCC(OC(=O)NCc1ccccn1)C2 (stereo not shown) [Example 174, Pyridin-2-ylmethyl-carbamic acid 3-cyano-2-[3-(2-ethoxy-phenyl)-propanoylamino]-4,5,6,7-tetrahydro-benzo[b]thiophen-6-yl ester] | ≥ 100 | ≤ 0.501
CCOc1ccccc1CCC(=O)Nc1sc2c(c1C#N)CCC(OC(=O)NCCn1ccnc1)C2 (stereo not shown) [Example 163, (2-Imidazol-1-yl-ethyl)-carbamic acid 3-cyano-2-[3-(2-ethoxy-phenyl)-propanoylamino]-4,5,6,7-tetrahydro-benzo[b]thiophen-6-yl ester] | ≥ 10 | ≤ 0.501
